Experiments:
Format in all cases: in vivo
Anthonomus grandis = assay: Boll weevil (Anthonomus grandis) control, insect diet in 96-well microtiter plates; conditions: 2500ppm; egg and larval mortality visually assessed after 5 days
Method: (§1) If not otherwise specified, the test solutions were prepared as follows: The active compound was dissolved at the desired concentration in a mixture of 1:1 (vol:vol) distilled water:acetone. The test solution was prepared at the day of use.
(§2) Test solutions were prepared in general at a concentration of 2500ppm (wt/vol).
B.1. Boll weevil (Anthonomus grandis)
For evaluating control of boll weevil, the test unit consisted of 96-well-microtiter plates containing an insect diet and 5-10 A. grandis eggs.
The compounds were formulated using a solution containing 75% v/v water and 25% v/v DMSO. Different concentrations of formulated compounds were sprayed onto the insect diet at 5µl, using a custom-built micro atomizer, at two replications.
After application, microtiter plates were incubated at about 25 ± 1°C and about 75 ± 5 % relative humidity for 5 days. Egg and larval mortality were then visually assessed.

Myzus persicae = assay: Green peach aphid (Myzus persicae), mixed life stages, systemic test via artificial diet under membrane; conditions: 2500ppm; aphid mortality visually assessed after 3 days
Method: as §1, §2
B.2. Green peach aphid (Myzus persicae) (mixed life stages)
For evaluating control of Green Peach Aphid through systemic means the test unit consisted of 96-well-microtiter plates containing liquid artificial diet under an artificial membrane. The compounds were formulated using a solution containing 75% v/v water and 25% v/v DMSO. Different concentrations of formulated compounds were pipetted into the aphid diet, using a custom-built pipette, at two replications. After application, 5 - 8 adult aphids were placed on the artificial membrane inside the microtiter plate wells. The aphids were then allowed to suck on the treated aphid diet and incubated at about 23 ± 1°C and about 50 ± 5 % relative humidity for 3 days. Aphid mortality and fecundity was then visually assessed.

Heliothis virescens = assay: Tobacco budworm (Heliothis virescens) control, insect diet in 96-well microtiter plates; conditions: 2500ppm; egg and larval mortality visually assessed after 5 days
Method: as §1, §2
B.3. Tobacco budworm (Heliothis virescens)
For evaluating control of Tobacco Budworm, the test unit consisted of 96-well-microtiter plates containing an insect diet and 15-25 H. virescens eggs. The compounds were formulated using a solution containing 75% v/v water and 25% v/v DMSO. Different concentrations of formulated compounds were sprayed onto the insect diet at 10µl, using a custom-built micro atomizer, at two replications. After application, microtiter plates were incubated at about 28 ± 1°C and about 80 ± 5 % relative humidity for 5 days. Egg and larval mortality was then visually assessed.

Aedes aegypti = assay: whole plant or invertebrate; conditions: 2500ppm; larval mortality visually assessed after 2 days
Method: as §1, §2
B.4. Yellow fever mosquito (Aedes aegypti)
For evaluating control of Yellow Fever Mosquito, the test unit consisted of 96-well-microtiter plates containing 200µl of tap water per well and 5-15 freshly hatched A. aegypti larvae. The active compounds were formulated using a solution containing 75% (v/v) water and 25% (v/v) DMSO. Different concentrations of formulated compounds or mixtures were sprayed onto the insect diet at 2.5µl, using a custom-built micro atomizer, at two replications.
After application, microtiter plates were incubated at 28 ± 1°C, 80 ± 5 % RH for 2 days. Larval mortality was then visually assessed.

Plutella xylostella = assay: Diamond back moth (Plutella xylostella), cabbage leaf disc dip test; conditions: 300ppm; 3rd instar larvae; mortality recorded 72 hours after treatment
Method: B.5. Diamond back moth (Plutella xylostella)
The active compound was dissolved at the desired concentration in a mixture of 1:1 (vol:vol) distilled water: acetone. Surfactant (Kinetic) was added at a rate of 0.01% (vol/vol). The test solution was prepared at the day of use. Cabbage leaf discs (60mm in diameter) were dipped in test solution and air-dried. Treated leaves were placed in petri dishes lined with moistened filter paper and inoculated with ten 3rd instar larvae. Mortality was recorded 72 hours after treatment. Feeding damages were also recorded using a scale of 0-100%.

Dichromothrips corbetti = assay: Orchid thrips (Dichromothrips corbetti), floral-immersion technique; conditions: 300ppm; adult thrips; mortality recorded 72 hours after treatment
Method: B.6. Orchid thrips (Dichromothrips corbetti)
Dichromothrips corbetti adults used for bioassay were obtained from a colony maintained continuously under laboratory conditions. For testing purposes, the test compound was diluted in a 1:1 mixture of acetone:water (vol:vol), plus Kinetic at a rate of 0.01% v/v.
Thrips potency of each compound was evaluated by using a floral-immersion technique. Each orchid petal was dipped into treatment solution and allowed to dry in Petri dishes. Treated petals were placed into individual re-sealable plastic along with about 20 adult thrips. All test arenas were held under dark condition and a temperature of about 28°C for duration of the assay. The percent mortality was recorded 72 hours after treatment.

Spodoptera eridania = assay: Southern armyworm (Spodoptera eridania), 2nd instar larvae, sprayed lima bean plants; conditions: 300ppm; 2nd instar larvae; assessed 4 days after treatment
Method: B.7. Southern armyworm (Spodoptera eridania), 2nd instar larvae
The active compounds were formulated by a Tecan liquid handler in 100% cyclohexanone as a 10'000 ppm solution supplied in tubes. The 10'000 ppm solution was serially diluted in 100% cyclohexanone to make interim solutions. These served as stock solutions for which final dilutions were made by the Tecan in 50% acetone:50% water (v/v) into 10 or 20ml glass vials. A nonionic surfactant (Kinetic®) was included in the solution at a volume of 0.01% (v/v). The vials were then inserted into an automated electrostatic sprayer equipped with an atomizing nozzle for application to plants/insects. Lima bean plants (variety Sieva) were grown 2 plants to a pot and selected for treatment at the 1st true leaf stage. Test solutions were sprayed onto the foliage by an automated electrostatic plant sprayer equipped with an atomizing spray nozzle. The plants were dried in the sprayer fume hood and then removed from the sprayer. Each pot was placed into perforated plastic bags with a zip closure. Ten to 11 armyworm larvae were placed into the bag and the bags zipped closed. Test plants were maintained in a growth room at about 25°C and about 20-40% relative humidity for 4 days, avoiding direct exposure to fluorescent light (14:10 light:dark photo-period) to prevent trapping of heat inside the bags. Mortality and reduced feeding were assessed 4 days after treatment, compared to untreated control plants.

Bemisia argentifolii = assay: Silverleaf whitefly (Bemisia argentifolii) adults, sprayed cotton plants; conditions: 300 ppm; adults; assessed 3 days after treatment
Method: B.8. Silverleaf whitefly (Bemisia argentifolii) (adults)
The active compounds were formulated by a Tecan liquid handler in 100% cyclohexanone as a 10,000-ppm solution supplied in tubes. The 10,000-ppm solution was serially diluted in 100% cyclohexanone to make interim solutions. These served as stock solutions for which final dilutions were made by the Tecan in 50% acetone:50% water (v/v) into 5 or 10ml glass vials. A nonionic surfactant (Kinetic®) was included in the solution at a volume of 0.01% (v/v). The vials were then inserted into an automated electrostatic sprayer equipped with an atomizing nozzle for application to plants/insects. Cotton plants at the cotyledon stage (one plant per pot) were sprayed by an automated electrostatic plant sprayer equipped with an atomizing spray nozzle. The plants were dried in the sprayer fume hood and then removed from the sprayer. Each pot was placed into a plastic cup and about 10 to 12 whitefly adults (approximately 3-5 days old) were introduced. The insects were collected using an aspirator and a nontoxic Tygon® tubing connected to a barrier pipette tip. The tip, containing the collected insects, was then gently inserted into the soil containing the treated plant, allowing insects to crawl out of the tip to reach the foliage for feeding. Cups were covered with a reusable screened lid. Test plants were maintained in a growth room at about 25°C and about 20-40% relative humidity for 3 days, avoiding direct exposure to fluorescent light (14:10 light:dark photoperiod) to prevent trapping of heat inside the cup. Mortality was assessed 3 days after treatment, compared to untreated control plants.

Measured: mortality in comparison with untreated controls

CN(C1=NOC(c2cc(Cl)cc(Cl)c2)(C(F)(F)F)C1)c1ccc(C#N)c(-n2cncn2)c1 (stereo not shown) [I-7]
not listed: Bemisia argentifolii
at least 75%: all other assays above

N#Cc1ccc(NC2=NOC(c3ccc(F)c(C(F)(F)F)c3)(C(F)(F)F)C2)cc1-n1cncn1 (stereo not shown) [I-8]
at least 75%: Plutella xylostella | Dichromothrips corbetti | Spodoptera eridania | Bemisia argentifolii

CN(C1=NOC(c2ccc(F)c(Cl)c2)(C(F)(F)F)C1)c1ccc(C#N)c(-n2cncn2)c1 (stereo not shown) [I-9]
not listed: Bemisia argentifolii
at least 75%: all other assays above

CCN(C1=NOC(c2ccc(F)c(Cl)c2)(C(F)(F)F)C1)c1ccc(C#N)c(-n2cncn2)c1 (stereo not shown) [I-10]
not listed: Bemisia argentifolii
at least 75%: all other assays above

N#Cc1ccc(N(CC2CC2)C2=NOC(c3ccc(F)c(Cl)c3)(C(F)(F)F)C2)cc1-n1cncn1 (stereo not shown) [I-11]
not listed: Bemisia argentifolii
at least 75%: all other assays above

C#CCN(C1=NOC(c2ccc(F)c(Cl)c2)(C(F)(F)F)C1)c1ccc(C#N)c(-n2cncn2)c1 (stereo not shown) [I-12]
not listed: Bemisia argentifolii
at least 75%: all other assays above

Fc1c(Cl)cc(C2(C(F)(F)F)CC(Nc3ccc(Cl)c(-n4cncn4)c3)=NO2)cc1Cl (stereo not shown) [I-13]
not listed: Dichromothrips corbetti
at least 75%: all other assays above

Fc1c(Cl)cc(C2(C(F)(F)F)CC(Nc3ccc(Cl)c(-n4ccc(C(F)(F)F)n4)c3)=NO2)cc1Cl (stereo not shown) [I-15]
at least 75%: Heliothis virescens | Aedes aegypti | Dichromothrips corbetti | Spodoptera eridania | Bemisia argentifolii

CCN(C1=NOC(c2cc(Cl)c(F)c(Cl)c2)(C(F)(F)F)C1)c1ccc(Cl)c(-n2cncn2)c1 (stereo not shown) [I-19]
not listed: Bemisia argentifolii
at least 75%: all other assays above

CCOC(=O)N(C1=NOC(c2cc(Cl)c(F)c(Cl)c2)(C(F)(F)F)C1)c1ccc(Cl)c(-n2cncn2)c1 (stereo not shown) [I-25]
not listed: Anthonomus grandis | Myzus persicae
at least 75%: all other assays above
